Reference: US11364275B2, “Linear lipopeptide paenipeptins and methods of using the same” (priority 2017, dated 2022)
In brackets after ≈: the same amount, converted by molar mass. Entries after “also recorded” stand apart in the source; their conditions may differ. Where a SMILES comes first, the peptide text is derived from it. [ ]: non-standard residue; d: D form. The star is where a group is joined. Dab = NCC[C@H](N)C(=O)O; Hexanoyl = CCCCCC(=O)*

Tests used:
[1] = tested on: A. baumannii FDA-CDC AR 0037; details: A. baumannii AR 0037
[2] = tested on: K. pneumoniae FDA-CDC AR 0097; details: K. pneumoniae AR 0097
[3] = tested on: K. pneumoniae FDA-CDC AR 0034; details: K. pneumoniae AR 0034
[4] = tested on: A. baumannii FDA-CDC AR 0063; experiment: Time-kill kinetics in 95% human serum, alone and combined; assay type: cell-based, Acinetobacter baumannii; details: A. baumannii AR 0063, 24 h
Method: (§1) Bacterial viable counts were determined at 0, 2, 4, 6, and 24 h after antimicrobial treatment. Bacterial surviving counts at 24 h endpoints were subjected to analysis of variance (ANOVA) followed by Tukey's honest significant difference (HSD) tests using SPSS Statistics (version 24; SPSS, Inc., Chicago, Ill., USA).
To further test the therapeutic potential of paenipeptin analogues, the time-kill kinetics assays of paenipeptins alone or in combination with other antibiotics were performed in 95% human serum in vitro. Without antimicrobial treatment, the population of A. baumannii FDA-CDC AR 0063 increased from 5.8 log to 9.3 log within 24 h. […] (FIG. 7A).

[5] = Cytotoxicity, MTT assay; assay type: cell-based, human; details: human, HEK 293 cells
Method: Cytotoxicity of paenipeptin analogues was determined against a human kidney cell line (HEK 293) using MTT assays (Huang E, Yousef AE. 2014. Paenibacterin, a novel broad-spectrum lipopeptide antibiotic, neutralises endotoxins and promotes survival in a murine model of Pseudomonas aeruginosa-induced sepsis. Int J Antimicrob Agents 44: 74-77). Cell viability was measured at 24 h following the addition of lipopeptides at concentrations between 30-105 μg/ml. The viability of human embryonic kidney cells (HEK 293) decreased with the increase of paenipeptin concentration. The viability of HEK 293 cells in the presence of paenipeptin analogue 1 and 15 at 105 μg/ml was 61% and 67%, respectively (Table 10). The relatively low cytotoxicity of paenipeptin analogue 1 and 15 was correlated with their low hemolytic activity against red blood cells.

[6] = tested on: Klebsiella pneumoniae ATCC 13883; experiment: MIC of antibiotics with or without paenipeptin analogues (potentiation); assay type: cell-based; details: K. pneumoniae ATCC 13883
Description: (§2) Gram-negative bacteria, including Acinetobacter and Klebsiella, are intrinsically resistant to the hydrophobic antibiotic rifampicin.

[7] = tested on: Acinetobacter baumannii ATCC 19606; experiment: as above; assay type: cell-based; details: A. baumannii ATCC 19606
Description: as §2

[8] = tested on: K. pneumoniae FDA-CDC AR 0080; details: K. pneumoniae AR 0080
[9] = tested on: Pseudomonas aeruginosa ATCC 27853; assay type: cell-based; details: ATCC 27853
[10] = tested on: K. pneumoniae FDA-CDC AR 0044
[11] = tested on: rabbit red blood cells; experiment: Hemolytic activity; assay type: cell-based; details: for Hemolysis: relative to Triton X-100
Summary of the method: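 Washed defibrinated rabbit RBCs in PBS pH 7.2 incubated 30 min at 37 °C with paenipeptin analogues at 16–128 μg/mL final. Released hemoglobin read at 415 nm in the supernatant; % hemolysis relative to 0.1% Triton X-100.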

[12] = tested on: Klebsiella pneumoniae ATCC 13883; assay type: cell-based; details: ATCC 13883
Method: (§3) The minimum inhibitory concentration (MIC) of paenipeptin analogues was determined using the broth microdilution method (Wirker, M. A. Methods for Dilution Antimicrobial Susceptibility Tests for Bacteria that Grow Aerobically: Approved Standard M07-A8; Clinical and Laboratory Standards Institute, Wayne, Pa., 2009). Seven reference strains (Acinetobacter baumannii ATCC 19606, Escherichia coli ATCC 25922, Klebsiella pneumoniae ATCC 13883, Pseudomonas aeruginosa ATCC 27853, Enterococcus faecium ATCC 19434, Staphylococcus aureus ATCC 29213 and methicillin-resistant S. aureus ATCC 43300) were subjected to MIC testing.
(§4) Paenipeptin analogues were two-fold diluted in tryptic soy broth (TSB; Becton Dickinson) and mixed with an equal volume of bacterial suspensions in TSB containing approximately 1.5×10^5 colony-forming units (CFU)/mL in a clear UV-sterilized 96-well microtiter plate (NBS, Corning Inc., Corning, N.Y.). […] The microtiter plate was incubated at 37° C. for 18-20 h.

[13] = tested on: A. baumannii FDA-CDC AR 0063; assay type: cell-based, Acinetobacter baumannii; details: FDA-CDC AR 0063, 24 h
Method: as §1

[14] = tested on: methicillin-resistant S. aureus ATCC 43300; assay type: cell-based, Staphylococcus aureus; details: ATCC 43300
Method: as §3, §4

[15] = tested on: A. baumannii FDA-CDC AR 0063; details: A. baumannii AR 0063
[16] = tested on: Acinetobacter baumannii ATCC 19606; assay type: cell-based; details: ATCC 19606
Method: as §3, §4

[17] = tested on: A. baumannii FDA-CDC AR 0052; details: FDA-CDC AR 0052
[18] = tested on: Staphylococcus aureus ATCC 29213; assay type: cell-based; details: ATCC 29213
Method: as §3, §4

[19] = tested on: K. pneumoniae FDA-CDC AR 0068
[20] = tested on: Enterococcus faecium ATCC 19434; assay type: cell-based; details: ATCC 19434
[21] = tested on: A. baumannii FDA-CDC AR 0083; details: A. baumannii AR 0083
[22] = tested on: K. pneumoniae FDA-CDC AR0097; experiment: Time-kill kinetics in 95% human serum, alone and combined; assay type: cell-based, Klebsiella pneumoniae
Method: as §1
To further test the therapeutic potential of paenipeptin analogues, the time-kill kinetics assays of paenipeptins alone or in combination with other antibiotics were performed in 95% human serum in vitro.

[23] = tested on: Escherichia coli ATCC 25922; assay type: cell-based; details: ATCC 25922
Method: as §3, §4

[24] = tested on: K. pneumoniae UAMS-KPPR1; experiment: MIC, polymyxin-resistant strain; assay type: cell-based, Klebsiella pneumoniae
Method: as §3, §4
(§5) There were at least three independent experiments with one replicate in each experiment.

[25] = tested on: E. coli UAMS-ECPR1; details: E. coli UAMS-ECPR1, polymyxin-resistant
Method: (§6) The minimum inhibitory concentration (MIC) of paenipeptin analogues was determined using the broth microdilution method (Wirker, M. A. Methods for Dilution Antimicrobial Susceptibility Tests for Bacteria that Grow Aerobically: Approved Standard M07-A8; Clinical and Laboratory Standards Institute, Wayne, Pa., 2009).
as §4, §5

[26] = tested on: K. pneumoniae UAMS-KPPR3; experiment: MIC, polymyxin-resistant strain; assay type: cell-based, Klebsiella pneumoniae
Method: as §3, §4, §5

[27] = tested on: E. coli UAMS-ECPR2; details: E. coli UAMS-ECPR2, polymyxin-resistant
Method: as §6, §4, §5

[28] = tested on: Klebsiella pneumoniae AR 0109; details: K. pneumoniae AR 0109, polymyxin-resistant
Method: as §6, §4, §5

[29] = tested on: Escherichia coli AR 0494 (mcr-1); details: E. coli AR 0494, mcr-1, polymyxin-resistant
Method: as §6, §4, §5

CCCCCC(=O)N[C@@H](CCN)C(=O)N[C@H](C(=O)N[C@@H](CCN)C(=O)N[C@H](Cc1ccccc1)C(=O)N[C@@H](CC(C)C)C(=O)N[C@@H](CCN)C(=O)N[C@@H](C(=O)N[C@@H](CC(C)C)C(=O)N[C@@H](CO)C(N)=O)C(C)C)[C@@H](C)CC [Analogue 1] (Hexanoyl-[Dab]I[Dab][dF]L[Dab][dV]LS-NH2)
MIC of clarithromycin at the presence of PMBN or paenipeptin analogue at 4 μg/ml [1]: 0.0313 μg/ml | MIC of rifampicin at the presence of PMBN or paenipeptin analogue at 4 μg/ml [1]: 0.0039 μg/ml | increase in antibiotic activity of clarithromycin ([1]; analogue at 4 μg/mL): 512 fold | MIC of clarithromycin at the presence of PMBN or paenipeptin analogue at 4 μg/ml [2]: 0.0313-0.0625 μg/ml | MIC of rifampicin at the presence of PMBN or paenipeptin analogue at 4 μg/ml [2]: 0.0039-0.0078 μg/ml | MIC of clarithromycin at the presence of PMBN or paenipeptin analogue at 4 μg/ml [3]: 0.25 μg/ml | MIC of rifampicin at the presence of PMBN or paenipeptin analogue at 4 μg/ml [3]: ≤0.0019 μg/ml | decrease of bacterial population, analogue 4 μg/ml in combination with rifampicin 4 μg/ml [4]: 2.7 log | log reduction, analogue 4 μg/ml in combination with clarithromycin 4 μg/ml [4]: 1.3 log | viability at 24 h, 30 µg/mL [5]: 85.2 ± 10.2% | viability at 24 h, 45 µg/mL [5]: 78.4 ± 11.2% | viability at 24 h, 60 µg/mL [5]: 78.4 ± 13.5% | viability at 24 h, 75 µg/mL [5]: 73.1 ± 11.3% | viability at 24 h, 90 µg/mL [5]: 69 ± 8.14% | viability at 24 h, 105 µg/mL [5]: 61 ± 6.38% | MIC of rifampicin at 2 μg/mL of paenipeptin analogue [6]: 0.0039 μg/ml | MIC of rifampicin at 4 μg/mL of paenipeptin analogue [6]: 0.00195 μg/ml | MIC of rifampicin at 2 μg/mL of paenipeptin analogue [7]: 0.0078-0.0156 μg/ml | MIC of rifampicin at 4 μg/mL of paenipeptin analogue [7]: 0.00195-0.0039 μg/ml | Sensitization factor (rifampicin) ([7]; MIC without / with 4 μg/mL paenipeptin): 4,096-8,192 | MIC of clarithromycin at the presence of PMBN or paenipeptin analogue at 4 μg/ml [8]: 0.0313 μg/ml | MIC of rifampicin at the presence of PMBN or paenipeptin analogue at 4 μg/ml [8]: 0.0625 μg/ml | MIC [9]: 8 to 16 µg/mL | MIC alone ([10]; FDA-CDC AR 0044): 16 µg/mL (≈ 14.7 µM) | MIC of clarithromycin at the presence of PMBN or paenipeptin analogue at 4 μg/ml ([10]; K. pneumoniae AR 0044): 0.0156 μg/ml | MIC of rifampicin at the presence of PMBN or paenipeptin analogue at 4 μg/ml ([10]; K. pneumoniae AR 0044): ≤0.0019 μg/ml | Hemolysis ([11]; 16 μg/mL): 0.48 ± 0.64% | Hemolysis ([11]; 32 μg/mL): 0.41 ± 0.58% | Hemolysis ([11]; 64 μg/mL): 0.08 ± 0.85% | hemolytic activity (in words) ([11]; 128 μg/mL): little hemolysis; also recorded: nonhemolytic | Hemolysis ([11]; 128 μg/mL): 0.61 ± 0.25% | MIC [12]: ≥32 µg/mL | log reduction, analogue 4 μg/ml in combination with rifampicin 1 μg/ml [13]: 4.7-5.1 log | MIC [14]: >32 µg/mL | MIC of clarithromycin at the presence of PMBN or paenipeptin analogue at 4 μg/ml [15]: 0.0313 μg/ml | MIC of rifampicin at the presence of PMBN or paenipeptin analogue at 4 μg/ml [15]: ≤0.0019 μg/ml | MIC [16]: >32 µg/mL | MIC alone [17]: 2 to 4 µg/mL | MIC [18]: >32 µg/mL | MIC alone ([19]; FDA-CDC AR 0068): >32 µg/mL | MIC of clarithromycin at the presence of PMBN or paenipeptin analogue at 4 μg/ml ([19]; K. pneumoniae AR 0068): 1 μg/ml | MIC of rifampicin at the presence of PMBN or paenipeptin analogue at 4 μg/ml ([19]; K. pneumoniae AR 0068): 0.0039-0.0156 μg/ml | MIC [20]: >32 µg/mL | MIC of clarithromycin at the presence of PMBN or paenipeptin analogue at 4 μg/ml [21]: 16 μg/ml | MIC of rifampicin at the presence of PMBN or paenipeptin analogue at 4 μg/ml [21]: 0.25-0.5 μg/ml | log reduction, analogue 4 μg/ml in combination with clarithromycin 4 μg/ml ([22]; 24 h): 4.9 log | log reduction, analogue 4 μg/ml in combination with rifampicin 4 μg/ml ([22]; 24 h): 4.9 log | log inactivation, single agent at 4 μg/ml ([22]; within 24 h): 4.2 log | MIC [23]: 8 to 16 µg/mL

Polymyxin B [reference compound]
Minimum inhibitory concentration [24]: >32 µg/mL | Minimum inhibitory concentration [25]: 32 µg/mL | Minimum inhibitory concentration [26]: >32 µg/mL | Minimum inhibitory concentration [27]: 32 µg/mL | Minimum inhibitory concentration [28]: 16 to 32 µg/mL | Minimum inhibitory concentration [29]: 2 to 8 µg/mL
